Assay results as given in the supplement of paper PMC10307832.

How the values were obtained:
Assay in all cases: relative viability (nuclei count vs DMSO), 5 days (fraction); higher = more cells survive
NCI-H2126 = system: NCI-H2126
How it was run: (§1)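 Nuclei were stained with Hoechst during a one-step fixation (final 0.05% Triton X-100, 1% formaldehyde, 1 ug/ml Hoechst) carried out 5 days after dosing, then counted on 4× images. The cells, lung cancer lines in 1536-well plates, had been dosed by pin tool the day after seeding with one drug alone or a fixed anchor-drug dose plus five library-drug doses (not always all listed) in √10 steps. Relative viability is the nuclei count in treated wells divided by that in vehicle wells, and each value is the median of duplicate plates.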

NCI-H1666 = system: NCI-H1666
How it was run: as §1

LCLC-103H = system: LCLC-103H
How it was run: as §1

NCI-H2405 = system: NCI-H2405
How it was run: as §1

NCI-H2342 = system: NCI-H2342
How it was run: as §1

NCI-H322M = system: NCI-H322M
How it was run: as §1

SW 1573 = system: SW 1573
How it was run: as §1

EMC-BAC-2 = system: EMC-BAC-2
How it was run: as §1

SW 900 = system: SW 900
How it was run: as §1

HCC-827 = system: HCC-827
How it was run: as §1

EPLC-272H = system: EPLC-272H
How it was run: as §1

LK-2 = system: LK-2
How it was run: as §1

PC-14 = system: PC-14
How it was run: as §1

NCI-H23 = system: NCI-H23
How it was run: as §1

ChaGo-K-1 = system: ChaGo-K-1
How it was run: as §1

SK-LU-1 = system: SK-LU-1
How it was run: as §1

RERF-LC-KJ = system: RERF-LC-KJ
How it was run: as §1

NCI-H1975 = system: NCI-H1975
How it was run: as §1

EKVX = system: EKVX
How it was run: as §1

LU99A = system: LU99A
How it was run: as §1

HCC-78 = system: HCC-78
How it was run: as §1

`Nc1ccn([C@@H]2O[C@H](CO)[C@@H](O)[C@@H]2O)c(=O)n1` [Cytarabine] + O=C(c1cc(Cc2n[nH]c(=O)c3ccccc23)ccc1F)N1CCN(C(=O)C2CC2)CC1 [Olaparib] (partner 8 µM) was tested, and the relative viability (NCI-H2126; first compound 0.005 µM) was 0.923, the relative viability (NCI-H2126; first compound 0.01581 µM) was 0.907 and the relative viability (NCI-H2126; first compound 0.05 µM) was 0.673. For the same compound, the relative viability (NCI-H2126; first compound 0.1581 µM) was 0.534, the relative viability (NCI-H2126; first compound 0.5 µM) was 0.515 and the relative viability (NCI-H1666; first compound 0.005 µM) was 0.675. The relative viability (NCI-H1666; first compound 0.01581 µM) was 0.754, the relative viability (NCI-H1666; first compound 0.05 µM) was 0.694 and the relative viability (NCI-H1666; first compound 0.1581 µM) was 0.613. For the same compound, the relative viability (NCI-H1666; first compound 0.5 µM) was 0.684, the relative viability (LCLC-103H; first compound 0.005 µM) was 0.717 and the relative viability (LCLC-103H; first compound 0.01581 µM) was 0.725. The relative viability (LCLC-103H; first compound 0.05 µM) was 0.906, the relative viability (LCLC-103H; first compound 0.1581 µM) was 0.803 and the relative viability (LCLC-103H; first compound 0.5 µM) was 0.792. It also gave a relative viability (NCI-H2405; first compound 0.005 µM) of 0.737, a relative viability (NCI-H2405; first compound 0.01581 µM) of 0.605 and a relative viability (NCI-H2405; first compound 0.05 µM) of 0.509. The relative viability (NCI-H2405; first compound 0.1581 µM) was 0.396, the relative viability (NCI-H2405; first compound 0.5 µM) was 0.336 and the relative viability (NCI-H2342; first compound 0.005 µM) was 0.477. For the same compound, the relative viability (NCI-H2342; first compound 0.01581 µM) was 0.477, the relative viability (NCI-H2342; first compound 0.05 µM) was 0.468 and the relative viability (NCI-H2342; first compound 0.1581 µM) was 0.389. It also gave a relative viability (NCI-H2342; first compound 0.5 µM) of 0.31, a relative viability (NCI-H322M; first compound 0.005 µM) of 0.773 and a relative viability (NCI-H322M; first compound 0.01581 µM) of 0.695. For the same compound, the relative viability (NCI-H322M; first compound 0.05 µM) was 0.467, the relative viability (NCI-H322M; first compound 0.1581 µM) was 0.469 and the relative viability (NCI-H322M; first compound 0.5 µM) was 0.351. For the same compound, the relative viability (SW 1573; first compound 0.005 µM) was 0.513, the relative viability (SW 1573; first compound 0.01581 µM) was 0.329 and the relative viability (SW 1573; first compound 0.05 µM) was 0.384. The relative viability (SW 1573; first compound 0.1581 µM) was 0.166, the relative viability (SW 1573; first compound 0.5 µM) was 0.108 and the relative viability (EMC-BAC-2; first compound 0.005 µM) was 0.53. It also gave a relative viability (EMC-BAC-2; first compound 0.01581 µM) of 0.449, a relative viability (EMC-BAC-2; first compound 0.05 µM) of 0.369 and a relative viability (EMC-BAC-2; first compound 0.1581 µM) of 0.287. It also gave a relative viability (EMC-BAC-2; first compound 0.5 µM) of 0.27, a relative viability (SW 900; first compound 0.005 µM) of 0.899 and a relative viability (SW 900; first compound 0.01581 µM) of 0.797. The relative viability (SW 900; first compound 0.05 µM) was 0.413, the relative viability (SW 900; first compound 0.1581 µM) was 0.242 and the relative viability (SW 900; first compound 0.5 µM) was 0.296. For the same compound, the relative viability (HCC-827; first compound 0.005 µM) was 0.459, the relative viability (HCC-827; first compound 0.01581 µM) was 0.367 and the relative viability (HCC-827; first compound 0.05 µM) was 0.0662. For the same compound, the relative viability (HCC-827; first compound 0.1581 µM) was 0.159, the relative viability (HCC-827; first compound 0.5 µM) was 0.189 and the relative viability (EPLC-272H; first compound 0.005 µM) was 0.476. For the same compound, the relative viability (EPLC-272H; first compound 0.01581 µM) was 0.57, the relative viability (EPLC-272H; first compound 0.05 µM) was 0.607 and the relative viability (EPLC-272H; first compound 0.1581 µM) was 0.244. It also gave a relative viability (EPLC-272H; first compound 0.5 µM) of 0.123, a relative viability (LK-2; first compound 0.005 µM) of 0.659 and a relative viability (LK-2; first compound 0.01581 µM) of 0.5. The relative viability (LK-2; first compound 0.05 µM) was 0.316, the relative viability (LK-2; first compound 0.1581 µM) was 0.164 and the relative viability (LK-2; first compound 0.5 µM) was 0.148. The relative viability (PC-14; first compound 0.005 µM) was 0.227, the relative viability (PC-14; first compound 0.01581 µM) was 0.252 and the relative viability (PC-14; first compound 0.05 µM) was 0.241. The relative viability (PC-14; first compound 0.1581 µM) was 0.105, the relative viability (PC-14; first compound 0.5 µM) was 0.0848 and the relative viability (NCI-H23; first compound 0.005 µM) was 0.387. The relative viability (NCI-H23; first compound 0.01581 µM) was 0.244, the relative viability (NCI-H23; first compound 0.05 µM) was 0.227 and the relative viability (NCI-H23; first compound 0.1581 µM) was 0.121. For the same compound, the relative viability (NCI-H23; first compound 0.5 µM) was 0.148, the relative viability (ChaGo-K-1; first compound 0.005 µM) was 0.414 and the relative viability (ChaGo-K-1; first compound 0.01581 µM) was 0.417. For the same compound, the relative viability (ChaGo-K-1; first compound 0.05 µM) was 0.32, the relative viability (ChaGo-K-1; first compound 0.1581 µM) was 0.238 and the relative viability (ChaGo-K-1; first compound 0.5 µM) was 0.209. For the same compound, the relative viability (SK-LU-1; first compound 0.005 µM) was 0.472, the relative viability (SK-LU-1; first compound 0.01581 µM) was 0.392 and the relative viability (SK-LU-1; first compound 0.05 µM) was 0.32. It also gave a relative viability (SK-LU-1; first compound 0.1581 µM) of 0.284, a relative viability (SK-LU-1; first compound 0.5 µM) of 0.235 and a relative viability (RERF-LC-KJ; first compound 0.005 µM) of 0.886. It also gave a relative viability (RERF-LC-KJ; first compound 0.01581 µM) of 0.806, a relative viability (RERF-LC-KJ; first compound 0.05 µM) of 0.655 and a relative viability (RERF-LC-KJ; first compound 0.1581 µM) of 0.459. For the same compound, the relative viability (RERF-LC-KJ; first compound 0.5 µM) was 0.277, the relative viability (NCI-H1975; first compound 0.005 µM) was 0.671 and the relative viability (NCI-H1975; first compound 0.01581 µM) was 0.871. It also gave a relative viability (NCI-H1975; first compound 0.05 µM) of 0.561, a relative viability (NCI-H1975; first compound 0.1581 µM) of 0.429 and a relative viability (NCI-H1975; first compound 0.5 µM) of 0.253. For the same compound, the relative viability (EKVX; first compound 0.005 µM) was 0.819, the relative viability (EKVX; first compound 0.01581 µM) was 0.665 and the relative viability (EKVX; first compound 0.05 µM) was 0.695. The relative viability (EKVX; first compound 0.5 µM) was 0.234, the relative viability (LU99A; first compound 0.005 µM) was 0.307 and the relative viability (LU99A; first compound 0.01581 µM) was 0.28. It also gave a relative viability (LU99A; first compound 0.05 µM) of 0.24, a relative viability (LU99A; first compound 0.1581 µM) of 0.24 and a relative viability (LU99A; first compound 0.5 µM) of 0.241. It also gave a relative viability (HCC-78; first compound 0.005 µM) of 0.906, a relative viability (HCC-78; first compound 0.01581 µM) of 0.849 and a relative viability (HCC-78; first compound 0.05 µM) of 0.583. For the same compound, the relative viability (HCC-78; first compound 0.1581 µM) was 0.419 and the relative viability (HCC-78; first compound 0.5 µM) was 0.278.
